In ChEMBL document CHEMBL1125941, “(2,3)--methylenepenicillanic acid sulfone: synthesis and -lactamase inhibiting properties” (Bioorg Med Chem Lett, 1991):

Tests used:
Assay type in all cases: functional, organism-based
[1] = tested on: Escherichia coli; test: Compound was evaluated for the inhibition of Escherichia coli TEM-1 enzyme
[2] = tested on: Enterobacter cloacae; test: Compound was evaluated for the inhibition of Enterobacter cloacae P99 cephalosporinase
[3] = tested on: Staphylococcus aureus; test: Compound was evaluated for the inhibition of Staphylococcus aureus penicillinase (PC1)

## C[C@]12C[C@@]1(C(=O)O)N1C(=O)C[C@H]1S2(=O)=O
[1]
  IC50: 2.5 µM
[2]
  IC50: 322 µM
[3]
  IC50: 14 µM

## C[C@@]12C[C@]1(C(=O)O)N1C(=O)C[C@H]1S2(=O)=O
[1]
  IC50: 406 µM
[2]
  IC50: 12 µM
[3]
  IC50: 548 µM

## CC1(C)[C@H](C(=O)O)N2C(=O)C[C@H]2S1(=O)=O [SULBACTAM]
[1]
  IC50: 1.9 µM
[2]
  IC50: 20 µM
[3]
  IC50: 6.8 µM
